Among the test systems are SNB-19 CNS; SK-MEL-28 melanoma; MDA-N; MALME-3M melanoma; SK-OV-3 ovarian; RXF 393 renal; HOP-62 NSCLC; COLO 205 colon; NCI-H23 lung; XF 498 CNS; DMS 114 small cell lung; DMS 273 small cell lung.
Common to all, as to experiment: inhibition of tumour cell growth, NCI panel, 48 h

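Cells were grown in 96-well plates and exposed to each compound for 48 hours at five concentrations; endpoints were interpolated linearly between bracketing concentrations, or set to the highest concentration if not reached. At the TGI there is no net growth.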 Bounds are passed on as bounds.

On to `CC1=NNC(=O)C1C1(C(=O)O)CC(c2c[nH]c3ccccc23)=NC(=S)N1` (stereo unspecified), for which the TGI with SNB-19 CNS was greater than 100 µM; in the test on SK-MEL-28 melanoma it was greater than 100 µM; in the test on MDA-N, greater than 100 µM; in the test on MALME-3M melanoma, 74.3 µM; in the test on SK-OV-3 ovarian, greater than 100 µM; with RXF 393 renal, 94.3 µM. Besides, the values for the TGI in the test on HOP-62 NSCLC, in the test with COLO 205 colon and with NCI-H23 lung were greater than 100 µM, 34.1 µM and 56.8 µM, respectively.

Turning to `COc1cc(C[C@@]2(C)[C@@H]3CCC[C@H](CO)[C@@]3(C)CC[C@@H]2C)c(Cl)c(OC)c1`, the TGI in the test on SNB-19 CNS was 33.8 µM; in the test with SK-MEL-28 melanoma it was 60.9 µM; in the test on MDA-N, 30.1 µM; in the test with MALME-3M melanoma it was 32 µM; with SK-OV-3 ovarian, 31.3 µM; with RXF 393 renal it was 24.7 µM. Besides, the TGI was 31.6 µM with HOP-62 NSCLC, 30.2 µM in the test on COLO 205 colon and 37.2 µM in the test with NCI-H23 lung.

Consider `O=C(Cn1c2ccc(Br)cc2c2nc3ccccc3nc21)NCc1ccccc1`, for which the TGI with SNB-19 CNS is 72.4 µM; in the test with SK-MEL-28 melanoma, greater than 100 µM; in the test with MDA-N it was greater than 100 µM; in the test on MALME-3M melanoma, greater than 100 µM; in the test on SK-OV-3 ovarian, greater than 100 µM; in the test on RXF 393 renal it was 26.9 µM. In addition, the TGI in the test with HOP-62 NSCLC, in the test with COLO 205 colon and in the test on NCI-H23 lung was greater than 100 µM each time.

In the case of `O=C(O)c1ccc2c(O)c(O)ccc2c1`, the TGI in the test with SNB-19 CNS was 36.1 µM; with SK-MEL-28 melanoma it was greater than 100 µM; in the test on MDA-N, 38.5 µM; in the test on MALME-3M melanoma, greater than 74.6 µM; in the test on SK-OV-3 ovarian, greater than 72.5 µM; in the test on RXF 393 renal, 42.5 µM. In addition, the TGI in the test on HOP-62 NSCLC was 41 µM; in the test on COLO 205 colon it was greater than 64 µM; in the test with NCI-H23 lung, 50.5 µM.

Take `Nc1nnc(N)n1N`: the TGI in the test with SNB-19 CNS, in the test on SK-MEL-28 melanoma, in the test with XF 498 CNS, with MALME-3M melanoma, with SK-OV-3 ovarian and in the test on RXF 393 renal was greater than 100 µM throughout. The TGI with HOP-62 NSCLC, in the test on COLO 205 colon, with NCI-H23 lung, in the test on DMS 114 small cell lung and with DMS 273 small cell lung was greater than 100 µM throughout.

For the molecule `CS(=O)(=O)OCCN(CCOS(C)(=O)=O)c1ccc(C=Nc2ccc(-c3csc(Cc4ccccc4)n3)cc2)c(Cl)c1`, the TGI in the test with SNB-19 CNS is greater than 89.6 µM; in the test with SK-MEL-28 melanoma, greater than 100 µM; in the test on MDA-N, greater than 76.3 µM; with MALME-3M melanoma, greater than 72.8 µM; in the test with SK-OV-3 ovarian it was greater than 77.7 µM; in the test with RXF 393 renal, 98.6 µM. The TGI is greater than 55.5 µM in the test on HOP-62 NSCLC, 36 µM in the test with COLO 205 colon and 70.6 µM in the test on NCI-H23 lung.

For the molecule `CCC1(O)C(=O)OCc2c1cc1n(c2=O)Cc2cc3cc4c(cc3nc2-1)OCO4` (stereo unspecified), the TGI with SNB-19 CNS turned out to be 2.17 µM; with SK-MEL-28 melanoma it was 18.9 µM; with XF 498 CNS, 0.225 µM; in the test on MALME-3M melanoma it was 0.807 µM; in the test on SK-OV-3 ovarian it was 1.81 µM; with RXF 393 renal, 0.0578 µM. The TGI in the test on HOP-62 NSCLC was less than 0.0198 µM; in the test with COLO 205 colon it was 1.79 µM; in the test on NCI-H23 lung, less than 0.0109 µM; in the test with DMS 114 small cell lung, 0.0284 µM; in the test with DMS 273 small cell lung it was 0.0151 µM.

Take `COc1cc(/C=C/c2ccc(OC)c(OC)c2)oc(=O)c1`: the TGI is greater than 250 µM in the test with SNB-19 CNS; greater than 250 µM in the test on SK-MEL-28 melanoma; greater than 250 µM with XF 498 CNS; greater than 250 µM in the test on MALME-3M melanoma; greater than 250 µM in the test on SK-OV-3 ovarian; greater than 216 µM with RXF 393 renal. In addition, the TGI in the test on HOP-62 NSCLC, with COLO 205 colon, with NCI-H23 lung, in the test on DMS 114 small cell lung and with DMS 273 small cell lung was greater than 250 µM throughout.

Take `NCCCn1c(Cl)nc2ccccc21`: the TGI in the test on SNB-19 CNS, in the test on SK-MEL-28 melanoma, in the test on MDA-N, with MALME-3M melanoma, in the test with SK-OV-3 ovarian and in the test on RXF 393 renal was greater than 100 µM each time. Besides, the TGI with HOP-62 NSCLC, with COLO 205 colon and in the test with NCI-H23 lung was greater than 100 µM each time.

Consider `COc1ccc(C2CC(c3sc(Nc4ccc(C)cc4)nc3C)=NN2)cc1` (stereo unspecified), for which the TGI came out at 33.8 µM in the test with SNB-19 CNS; 33.6 µM in the test on SK-MEL-28 melanoma; 36.7 µM in the test on XF 498 CNS; 44.1 µM in the test on SK-OV-3 ovarian; 27.1 µM in the test with RXF 393 renal; 38.3 µM in the test with HOP-62 NSCLC. Moreover, the TGI with COLO 205 colon stood at 26.9 µM; in the test with NCI-H23 lung, 30.7 µM; in the test with DMS 114 small cell lung, 30 µM; with DMS 273 small cell lung, 38.5 µM.

With `COc1ccc(-c2cc(-c3ccc(C)cc3)n(C3OC(COC(C)=O)C(OC(C)=O)C(OC(C)=O)C3OC(C)=O)c(=S)c2C#N)cc1` (stereo unspecified), the TGI in the test on SNB-19 CNS, in the test with SK-MEL-28 melanoma, in the test with MDA-N, in the test with MALME-3M melanoma, in the test with SK-OV-3 ovarian and in the test with RXF 393 renal was greater than 100 µM throughout. In addition, the TGI with HOP-62 NSCLC, with COLO 205 colon and with NCI-H23 lung was greater than 100 µM throughout.

Turning to `O=[N+]([O-])c1ccc(C[P+]2(c3ccccc3)CCCCC2)cc1` (tested in a mixture with another compound), the TGI in the test with SNB-19 CNS, with SK-MEL-28 melanoma, in the test on XF 498 CNS, in the test with MALME-3M melanoma, in the test with SK-OV-3 ovarian and in the test with RXF 393 renal was greater than 100 µM throughout. The TGI in the test on HOP-62 NSCLC, in the test with COLO 205 colon, in the test on NCI-H23 lung, in the test on DMS 114 small cell lung and in the test on DMS 273 small cell lung was greater than 100 µM throughout.

On to `CC(=O)C1=C(C)N(c2ccccc2)C2(O)C3=C(C(=O)c4ccccc4C3=O)C(O)=CC12Cl` (stereo unspecified), for which the TGI was 23.5 µM with SNB-19 CNS; 23.6 µM in the test with SK-MEL-28 melanoma; 6.88 µM in the test with MDA-N; 4.91 µM in the test on MALME-3M melanoma; greater than 100 µM with SK-OV-3 ovarian; 25.6 µM with RXF 393 renal. Also, the values for the TGI in the test on HOP-62 NSCLC, in the test with COLO 205 colon and in the test on NCI-H23 lung were 80.1 µM, greater than 100 µM and 39.9 µM, respectively.

The values above are taken from PubChem BioAssay (NCI).
